Assay results reported in US20050143391A1, “Heterocyclic amides with alpha-4 integrin antagonist activity” (J. Uriach Y Compañia S.A., priority 2002, published 2005).

target: T1, integrin α4β1 (Homo sapiens, UniProt P05556+P13612); experiment: Inhibition of α4β1-dependent cell adhesion (Jurkat cells to peptide CS-1); type: cell-based; conditions: adhesion of Jurkat cells to CS-1-coated plates; products preincubated with cells at 37° C. for 30 minutes; at least 6 product concentrations
T1 construct: endogenous in cells; host or cells: Jurkat cells
T1 sequence (P13612 34-1032): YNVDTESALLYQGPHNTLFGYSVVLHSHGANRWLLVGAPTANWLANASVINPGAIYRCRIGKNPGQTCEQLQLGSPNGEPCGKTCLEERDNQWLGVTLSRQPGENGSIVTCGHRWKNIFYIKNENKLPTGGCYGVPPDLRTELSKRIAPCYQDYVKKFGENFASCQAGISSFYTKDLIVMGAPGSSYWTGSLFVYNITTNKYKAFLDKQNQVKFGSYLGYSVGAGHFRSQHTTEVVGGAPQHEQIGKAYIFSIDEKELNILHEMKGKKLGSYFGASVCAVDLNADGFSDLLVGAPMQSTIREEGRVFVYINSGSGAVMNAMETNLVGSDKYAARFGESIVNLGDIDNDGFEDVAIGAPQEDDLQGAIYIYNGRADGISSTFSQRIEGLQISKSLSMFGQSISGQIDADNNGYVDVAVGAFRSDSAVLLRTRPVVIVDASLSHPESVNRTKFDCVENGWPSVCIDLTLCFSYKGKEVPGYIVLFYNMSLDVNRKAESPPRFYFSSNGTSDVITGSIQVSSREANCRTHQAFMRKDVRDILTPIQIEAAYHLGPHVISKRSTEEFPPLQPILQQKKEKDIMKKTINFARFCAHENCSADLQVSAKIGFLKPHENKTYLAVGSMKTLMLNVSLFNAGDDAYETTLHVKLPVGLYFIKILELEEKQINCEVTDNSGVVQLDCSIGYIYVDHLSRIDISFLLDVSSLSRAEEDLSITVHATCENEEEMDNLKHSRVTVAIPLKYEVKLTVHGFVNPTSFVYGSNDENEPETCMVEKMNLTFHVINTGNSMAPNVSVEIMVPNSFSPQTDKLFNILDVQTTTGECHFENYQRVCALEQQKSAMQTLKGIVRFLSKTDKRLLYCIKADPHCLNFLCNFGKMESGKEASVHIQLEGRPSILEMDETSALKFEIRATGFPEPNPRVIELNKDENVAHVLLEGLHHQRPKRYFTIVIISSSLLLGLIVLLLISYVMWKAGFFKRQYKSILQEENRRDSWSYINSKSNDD
T1 sequence (P05556 21-798): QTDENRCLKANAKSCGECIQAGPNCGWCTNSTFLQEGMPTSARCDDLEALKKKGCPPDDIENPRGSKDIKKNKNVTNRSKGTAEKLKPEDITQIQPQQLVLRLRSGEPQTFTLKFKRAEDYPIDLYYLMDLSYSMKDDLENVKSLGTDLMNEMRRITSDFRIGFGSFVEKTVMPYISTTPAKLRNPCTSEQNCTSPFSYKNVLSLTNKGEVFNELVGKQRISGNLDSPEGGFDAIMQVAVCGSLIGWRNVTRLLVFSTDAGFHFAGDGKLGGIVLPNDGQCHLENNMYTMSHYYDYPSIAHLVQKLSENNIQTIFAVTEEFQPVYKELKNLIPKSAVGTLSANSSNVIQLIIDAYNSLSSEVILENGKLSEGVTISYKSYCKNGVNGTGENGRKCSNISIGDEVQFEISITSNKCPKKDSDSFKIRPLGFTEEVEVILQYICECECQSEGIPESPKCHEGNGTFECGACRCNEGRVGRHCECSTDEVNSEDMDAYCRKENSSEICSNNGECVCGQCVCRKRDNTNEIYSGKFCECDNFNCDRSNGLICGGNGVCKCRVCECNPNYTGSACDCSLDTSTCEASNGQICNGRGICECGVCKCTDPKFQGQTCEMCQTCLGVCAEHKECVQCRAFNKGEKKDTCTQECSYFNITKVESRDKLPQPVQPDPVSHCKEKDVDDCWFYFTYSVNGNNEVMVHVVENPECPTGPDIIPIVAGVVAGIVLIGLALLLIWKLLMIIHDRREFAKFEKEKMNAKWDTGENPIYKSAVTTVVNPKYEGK
Method: Inhibition of α4β1-Dependent Cell Adhesion
Inhibition of α4β1-dependent cell adhesion was assayed by evaluating the interaction between the peptide CS-1 (H-CLHGPEILDVPST-CONH2) and Jurkat cells (T lymphocyte cell line expressing activated integrin α4β1 but not integrin α4β7) after preincubation of said cells with the compounds of formula I to be tested. The peptide CS-1 was synthesized by conventional solid phase chemistry and purified by HPLC. Its identity was determined by elemental analysis and mass spectroscopy.
1.—Preparation of CS-1-Coated Plates
96-black well plates (Costar 3925) were used. 200 μL of 2% bovine serum albumin solution (BSA, Sigma α4503) was added per well and the plate was incubated for 2 hours at 37° C. The solution was discarded and the plate was washed twice with 200 μL of phosphate buffered saline solution (PBS, Gibco 14190-094) per well. Then, 200 μL of 10 μg/mL N-succinimidyl 3-(2-pyridyldithio)propionate solution (SPDP, Sigma P-3415) was added per well, and the plate was incubated at 37° C. for 30 minutes. The remaining solution was discarded and the plate was twice washed with 200 μL per well of PBS. Next, 200 μL of 25 μg/mL CS-1 peptide solution (equivalent to 5 μg/well) was added per well and the plate was incubated at 37° C. for 2 hours and then overnight at 4° C.
2.—Jurkat Cell Line: Culture and Fluorescent Labelling
Jurkat cells were kept in culture at a density comprised between 2×10^5 and 1.5×10^6 cells/mL in 1640 RPMI medium (Gibco 21875-034) enriched with 10% fetal calf serum (FCS, Gibco 10270-106).
50×10^6 cells were extracted, centrifuged (1200 rpm, 10 min, room temperature) and the medium was discarded. Cells were resuspended in 5 mL of RPMI, and 10 μL of a 1 mM solution of the fluorophore calceine.AM (Molecular Probes, C-3100) was added. The suspension was incubated for 30 min at 37° C. in the darkness, with occasional shaking. 40 mL of RPMI was added to stop the labelling and the suspension was centrifuged (1200 rpm, 10 min, room temperature). The medium was discarded, and the labelled cells were washed with 40 mL of RPMI in order to remove the unincorporated fluorescent probe. Finally, cells were resuspended in RPMI enriched with 10% FCS to obtain a 8×10^6 cells/mL suspension.
The plate previously prepared was twice washed with 200 μL per well of PBS and blocked with 200 μL of 1% BSA for at least 1 hour at room temperature.
The products to be tested were dissolved in dimethylsulfoxide at a concentration of 10 mM and dilutions thereof were prepared in RPMI medium enriched with 10% FCS. The products were preincubated with the Jurkat cells at 37° C. for 30 minutes, at a product concentration comprised between 1 nM and 10 μM, at a cell density of 4×10^6 cells/mL and at a maximal dimethylsulfoxide concentration of 0.1%.
100 μL of the resulting cell-product supsension was added per well (cellular density 4×10^5 cells/well). The product was omitted in the control wells and cells or CS-1 were omitted in the blanks. The plate was incubated for 60 min at room temperature in the-darkness, was twice washed with 200 μL per well of RPMI and then 100 μL of PBS was added. The plate was read with a fluorescence reader at an excitation wavelength of 485 nm and at an emission wavelength of 530 nm.
Maximal adhesion (100%) was determined as the average of the fluorescence intensities (FI) of the control wells, and the minimal adhesion as the average FI of the blanks. The adhesion inhibition percentage was determined using the following formula: [formula]
The results are expressed as the IC50 values (concentration producing 50% inhibition). IC50 values were calculated by testing at least 6 product concentrations and by adjusting the inhibition percentages to a dose-response curve of variable slope.

IC50 | Compound
135 nM | O=C(O)[C@H](CCC(=O)N1CCC(CCOC(=O)N2CCN(c3ccccc3)CC2)CC1)NC(=O)[C@@H]1CCCN1S(=O)(=O)c1cc(Cl)cc(Cl)c1 [Example 117, (2S)-2-[1-(3,5-Dichlorophenylsulfonyl)-L-prolylamino]-5-oxo-5-[4-[2-(4-phenylpiperazin-1-ylcarbonyloxy)ethyl]piperidin-1-yl]pentanoic Acid]
49.8 nM | CCCc1nc2cnccc2n1CC1CCN(C(=O)CC[C@H](NC(=O)[C@@H]2CCCN2S(=O)(=O)c2cc(Cl)cc(Cl)c2)C(=O)O)CC1 [Example 119, (2S)-2-[1-(3,5-Dichlorophenylsulfonyl)-L-prolylamino]-5-oxo-5-[4-(2-propylimidazo[4,5-c]pyridin-1-ylmethyl)piperidin-1-yl]pentanoic Acid]
4.6 nM | CCc1nc2cnccc2n1CC1CCN(C(=O)NC[C@H](NC(=O)[C@@H]2CCCN2S(=O)(=O)c2cc(Cl)cc(Cl)c2)C(=O)O)CC1 [Example 123, Lithium (2S)-2-[1-(3,5-dichlorophenylsulfonyl)-L-prolyl]amino-3-[[4-(2-ethylimidazo[4,5-c]pyridin-1-ylmethyl)piperidin-1-ylcarbonyl]amino]propionate]
33 nM | (2S)-2-[1-(3,5-Dichlorophenylsulfonyl)-L-prolylamino]-5-oxo-5-[4-(1-pyrrolylmethyl)piperidin-1-yl]pentanoic Acid [Example 81]
